Measurements published in PubChem BioAssay (NCI).
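In this assay, cells in 96-well plates receive the compound at five concentrations for 48 hours. Endpoints are linearly interpolated between the surrounding concentrations. The concentration for 50% growth inhibition is given as GI50. TGI denotes the concentration required for complete inhibition of growth.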

Assays:
Test in all cases: DTP human tumour cell line panel, 48 h; in the data active = GI50 below about 0.43 µM; inactive = the rest
OVCAR-5 ovarian = tested on: OVCAR-5 ovarian
A549 NSCLC = tested on: A549 NSCLC
NCI-H460 lung = tested on: NCI-H460 lung
UACC-62 melanoma = tested on: UACC-62 melanoma
MALME-3M melanoma = tested on: MALME-3M melanoma
OVCAR-8 ovarian = tested on: OVCAR-8 ovarian
PC-3 prostate = tested on: PC-3 prostate
HCT-15 colon = tested on: HCT-15 colon
SK-OV-3 ovarian = tested on: SK-OV-3 ovarian
SF-295 CNS = tested on: SF-295 CNS
HOP-62 NSCLC = tested on: HOP-62 NSCLC
NCI/ADR-RES ovarian = tested on: NCI/ADR-RES ovarian
UO-31 renal = tested on: UO-31 renal
DU-145 prostate = tested on: DU-145 prostate
SK-MEL-5 melanoma = tested on: SK-MEL-5 melanoma
A498 renal = tested on: A498 renal
ACHN renal = tested on: ACHN renal
OVCAR-3 ovarian = tested on: OVCAR-3 ovarian
SW-620 colon = tested on: SW-620 colon
HCC-2998 colon = tested on: HCC-2998 colon
MDA-MB-435 = tested on: MDA-MB-435
COLO 205 colon = tested on: COLO 205 colon
HS 578T breast = tested on: HS 578T breast
T-47D breast = tested on: T-47D breast
IGROV1 ovarian = tested on: IGROV1 ovarian
NCI-H522 lung = tested on: NCI-H522 lung
SK-MEL-28 melanoma = tested on: SK-MEL-28 melanoma

FC(F)(F)c1ccc(-c2cnc(Cl)nc2NC2CCCCCC2)cc1
> 100 µM: TGI (OVCAR-5 ovarian) | TGI (A549 NSCLC) | TGI (NCI-H460 lung) | TGI (UACC-62 melanoma) | TGI (MALME-3M melanoma) | TGI (OVCAR-8 ovarian) | TGI (PC-3 prostate) | TGI (HCT-15 colon) | TGI (SK-OV-3 ovarian) | TGI (SF-295 CNS) | TGI (HOP-62 NSCLC) | TGI (NCI/ADR-RES ovarian) | TGI (UO-31 renal) | TGI (DU-145 prostate) | TGI (SK-MEL-5 melanoma) | TGI (A498 renal) | TGI (ACHN renal) | TGI (OVCAR-3 ovarian) | TGI (SW-620 colon) | TGI (HCC-2998 colon) | TGI (MDA-MB-435) | TGI (COLO 205 colon) | TGI (HS 578T breast) | TGI (T-47D breast) | TGI (IGROV1 ovarian) | TGI (NCI-H522 lung)
inactive: GI50 (OVCAR-5 ovarian) > 100 µM | GI50 (A549 NSCLC) > 100 µM | GI50 (NCI-H460 lung) 73.1 µM | GI50 (UACC-62 melanoma) > 100 µM | GI50 (MALME-3M melanoma) > 100 µM | GI50 (OVCAR-8 ovarian) > 100 µM | GI50 (PC-3 prostate) 28.7 µM | GI50 (HCT-15 colon) > 100 µM | GI50 (SK-OV-3 ovarian) > 100 µM | GI50 (SF-295 CNS) 69.7 µM | GI50 (HOP-62 NSCLC) > 100 µM | GI50 (NCI/ADR-RES ovarian) > 100 µM | GI50 (UO-31 renal) > 100 µM | GI50 (DU-145 prostate) > 100 µM | GI50 (SK-MEL-5 melanoma) 62.8 µM | GI50 (A498 renal) > 100 µM | GI50 (ACHN renal) > 100 µM | GI50 (OVCAR-3 ovarian) > 100 µM | GI50 (SW-620 colon) > 100 µM | GI50 (HCC-2998 colon) > 100 µM | GI50 (MDA-MB-435) > 100 µM | GI50 (COLO 205 colon) 95.5 µM | GI50 (HS 578T breast) > 100 µM | GI50 (T-47D breast) 19.1 µM | GI50 (IGROV1 ovarian) > 100 µM | GI50 (NCI-H522 lung) 45.4 µM | GI50 (SK-MEL-28 melanoma) > 100 µM
